Where two headings read alike, the source gives them in different places. Non-standard residues stand in square brackets, D forms with d. Residues, ends and D or L forms follow the SMILES beside them. NMeF = CN[C@@H](Cc1ccccc1)C(=O)O; dNMeF = CN[C@H](Cc1ccccc1)C(=O)O; NMeA = CN[C@@H](C)C(=O)O; Sar = CNCC(=O)O
Columns and labels:
[1] = amide bond, 12-membered ring
[2] = system: Lolium multiflorum (Ryegrass) seeds; experiment: whole plant or invertebrate; format: in vivo; conditions: agar germination; for Radicle growth inhibition (%): 67 µg/mL, 20 °C, evaluated after 12 days, three replicates of ten seeds, relative to DMSO negative control
Experimental: The herbicidal activity of cyclotetrapeptides 16–25, 27 and the linear precursors 4–8, 10, 12–15 were evaluated for their influence on germination, leaf development and radicle length growth of ryegrass seeds at 67 μg/mL using germination in agar methodology. DMSO was used as negative control and the herbicide S-metolachlor as positive control. […] The results were expressed as % of radicle growth inhibition, calculated as the percentage between the treatment with each compound and radicle length growth for the negative control (DMSO), as shown in Figure 3.
The experiments to determine the herbicidal activity of the cyclopeptide compounds were carried out on Lolium multiflorum (Raygrass) plants. Germination, root length and leaf development were evaluated, compared to a control without herbicide, a negative control (100 μL DMSO in 15 mL agar, used as solvent) and an herbicide control (1/8 of the commercial dose of the herbicide S-metolachlor).
Serial experiments were conducted using the Agar germination methodology, where the tested compounds and the respective controls were placed in glass Petri dishes (6 cm diameter) in three replicates per treatment. Ten ryegrass seeds were germinated in a growth chamber (20 °C, day/night temperature). The seeds were previously sterilized by immersing them in 70% alcohol for 10 s. When distributed in the Petri dish on the agar, the seeds were placed in such a way as to ensure that they remained submerged in the solution.
Agar–water solution was prepared at 0.3%, 3 g of agar was placed in 1 liter of deionized water, and the solution was autoclaved at 100 °C for 45 min. Once the agar medium had cooled to approximately 60 °C, the solutions were prepared.
The negative control–DMSO control was prepared by adding 100 μL of DMSO per plate in 15 mL of agar and then the seeds were distributed, as mentioned above. A control without DMSO was also carried out to check that the product was not altering the correct development of the ryegrass seeds. For this test, 15 ml of agar were placed in each Petri dish and, before it solidified, the seeds of the species evaluated were placed on top. The herbicide treatment, positive control–Control S-Metolachlor (960 g/L), was carried out for a conversion of 1/8 of the dose of 1 L/ha of commercial product. For this purpose, a stock solution of S-Metolachlor was prepared by placing 0.28 mL of the herbicide in a volumetric flask and topping up to 1000 mL. A total of 25 mL of this stock solution were taken, placed in a volumetric flask and brought to 200 mL, thus, generating the 1/8x solution of S-Metolachlor. A volume of 3 mL of 1/8x herbicide solution was mixed with 45 mL of the agar solution to bring 16 mL into each Petri dish. This ensured that there was 1 mL of 1/8x S-Metolachlor solution per plate: 0.28 μL of herbicide solution. Seeds were arranged in the same way. Using the same method, the agar media corresponding to each plate (15 mL) was mixed with the cyclopeptides dissolved in 100 μL of DMSO.
Germination, root length and leaf development were evaluated 12 days after preparation. The variables of germinated plants and plants with developed leaves of the total number of plants placed to germinate were analyzed by fitting a generalized linear model, since they presented a binomial distribution.
Glinmix procedure of the SAS statistical package. Based on the model and for the comparison of the treatments with the different controls, the contrasts of interest were carried out. The effect of the treatments on the root length variable was studied by comparing means using a Tukey test (p-value < 0.05) in INFOSTAT.
5. Procedure for evaluation of phytotoxic activity
Experiments for determining the herbicidal activity of cyclopeptide compounds were carried out on Lolium multiflorum (Ray grass) plants. Germination, root length, and leaf development were evaluated compared to a control without herbicide, a negative […]

[3] = system: Lolium multiflorum (Ryegrass) seeds; format: in vivo; conditions: agar germination
[4] = system: Lolium multiflorum (Ryegrass) seeds; conditions: 67 μg/mL; cited from earlier work
HepG2 cells = conditions: cited from earlier work
cyanobacteria = conditions: cited from earlier work
[5] = 11 µM, 12 days, relative to DMSO control
[6] = 6 µM, 12 days, relative to DMSO control

Cyclo-[Phe-N-MeGly-Cys(Bn)-N-MeGly]
ring closure, isolated yield [1]: 54%

CC(C)C[C@H](NC(=O)[C@H](C)N)C(=O)N(C)[C@H](Cc1ccccc1)C(=O)NCC(=O)O [Compound 7, NH2-Ala-Leu-N-Me-D-Phe-Gly-OH] (H-AL[dNMeF]G-OH)
Radicle growth inhibition (%) [2]: 94% and greater than 85%
Radicle growth inhibition (%) [3, 5]: 48%

CC(C)C[C@@H]1NC(=O)[C@H](C)N(C)C(=O)CN(C)C(=O)[C@H](Cc2ccccc2)NC1=O [Compound 23, Cyclo-[N-MeAla-Leu-Phe-N-MeGly]] (cyclo([NMeA]LF[Sar]))
Radicle growth inhibition (%) [2]: 16%

Cyclo-[N-MeAla-Leu-Phe-Gly] (head to tail) [Compound 17]
Radicle growth inhibition (%) [3, 6]: 10%

Cyclo-[N-MeAla-Leu-Phe-Gly]
ring closure, isolated yield [1]: 48%

Cyclo-[N-MeAla-Leu-N-MePhe-Gly]
ring closure, isolated yield [1]: 47%

Cyclo-[N-MeAla-Phe-N-MePhe-Gly]
ring closure, isolated yield [1]: 86%

CC(C)C[C@@H]1NC(=O)[C@H](C)NC(=O)CN(C)C(=O)[C@H](Cc2ccccc2)N(C)C1=O [Compound 22, Cyclo-[Ala-Leu-N-MePhe-N-MeGly]] (cyclo(AL[NMeF][Sar]))
Radicle growth inhibition (%) [2]: 66%

Cyclo-[N-Me-D-Phe-Ala-Phe-N-MeGly]
ring closure, isolated yield [1]: 17%

CC(C)C[C@@H]1NC(=O)[C@H](C)N(C)C(=O)CNC(=O)[C@H](Cc2ccccc2)N(C)C1=O [Compound 24, Cyclo-[N-MeAla-Leu-N-MePhe-Gly]] (cyclo([NMeA]L[NMeF]G))
Radicle growth inhibition (%) [2]: 81%
Radicle growth inhibition (%) ([3]; 10 µM, 12 days, relative to DMSO control): 62%

versicotide D
radicle growth inhibition [4]: 74%
cytotoxicity on HepG2 cells (HepG2 cells): low cytotoxicity
inhibition of cyanobacteria population (cyanobacteria): ability to inhibit cyanobacteria population

CC(C)C[C@@H]1NC(=O)[C@H](C)N(C)C(=O)CN(C)C(=O)[C@H](Cc2ccccc2)NC1=O [Cyclo-[N-MeAla-Leu-Phe-N-MeGly]]
ring closure, isolated yield ([1]; from H-MeAla-Leu-Phe-MeGly-OH): 38%

C[C@@H]1NC(=O)[C@@H](Cc2ccccc2)N(C)C(=O)CN(C)C(=O)[C@H](Cc2ccccc2)NC1=O [Compound 26, Cyclo-[N-Me-D-Phe-Ala-Phe-N-MeGly]] (cyclo([dNMeF]AF[Sar]))
Radicle growth inhibition (%) ([3]; 7 µM, 12 days, relative to DMSO control): 45%
Radicle growth inhibition (%) ([3]; 45 µg/mL, 12 days, relative to DMSO control): 67%

CC(C)C[C@H](NC(=O)[C@H](C)N)C(=O)N[C@@H](Cc1ccccc1)C(=O)N(C)CC(=O)O [Compound 6, NH2-Ala-Leu-Phe-NMeGly-OH] (H-ALF[Sar]-OH)
Radicle growth inhibition (%) [2]: 92% and greater than 85%

Cyclo-[N-MeAla-Leu-D-Phe-Gly]
ring closure, isolated yield [1]: 67%

CC(C)C[C@@H]1NC(=O)[C@H](C)NC(=O)CN(C)C(=O)[C@H](Cc2ccccc2)N(C)C1=O [Cyclo-[Ala-Leu-N-MePhe-N-MeGly]]
ring closure, isolated yield ([1]; from H-Ala-Leu-MePhe-MeGly-OH): 33%

CC(C)C[C@@H]1NC(=O)[C@H](C)NC(=O)CNC(=O)[C@@H](Cc2ccccc2)N(C)C1=O [Cyclo-[Ala-Leu-N-Me-D-Phe-Gly]]
ring closure, isolated yield ([1]; from H-Ala-Leu-dMePhe-Gly-OH): 66%

CC(C)C[C@H](NC(=O)[C@H](C)N)C(=O)N(C)[C@@H](Cc1ccccc1)C(=O)N(C)CC(=O)O [Compound 10, NH2-Ala-Leu-N-MePhe-N-MeGly-OH] (H-AL[NMeF][Sar]-OH)
Radicle growth inhibition (%) [2]: greater than 85%
Radicle growth inhibition (%) [3, 5]: 15%

CCc1cccc(C)c1N(C(=O)CCl)[C@@H](C)COC [S-metolachlor, reference compound]
inhibition at 2.1 µg/mL ([2]; Lolium multiflorum, 288 h, positive control at 2.1 µg/mL (1/8 of the commercial dose), 12 days, read-out: Radicle growth inhibition (%)): 100%

CC(C)C[C@@H]1NC(=O)[C@H](C)NC(=O)CNC(=O)[C@@H](Cc2ccccc2)NC1=O [Cyclo-[Ala-Leu-D-Phe-Gly]]
ring closure, isolated yield ([1]; from H-Ala-Leu-dPhe-Gly-OH): 5%

CC(C)C[C@@H]1NC(=O)[C@H](C)NC(=O)CN(C)C(=O)[C@H](Cc2ccccc2)NC1=O [Cyclo-[Ala-Leu-Phe-N-MeGly]]
ring closure, isolated yield ([1]; from H-Ala-Leu-Phe-MeGly-OH): 40%

CC(C)C[C@@H]1NC(=O)[C@H](C)NC(=O)CN(C)C(=O)[C@@H](Cc2ccccc2)NC1=O [Cyclo [Ala-Leu-D-Phe-N-MeGly]]
ring closure, isolated yield ([1]; from H-Ala-Leu-dPhe-MeGly-OH): 76%

C[C@H]1C(=O)N[C@@H](Cc2ccccc2)C(=O)N(C)[C@@H](Cc2ccccc2)C(=O)NCC(=O)N1C [Compound 25, Cyclo-[N-MeAla-Phe-N-MePhe-Gly]] (cyclo([NMeA]F[NMeF]G))
Radicle growth inhibition (%) [2]: 96% and greater than 85%
Radicle growth inhibition (%) ([3]; 4 µM, 12 days, relative to DMSO control): 41%

CN[C@H](Cc1ccccc1)C(=O)N[C@@H](C)C(=O)N[C@@H](Cc1ccccc1)C(=O)N(C)CC(=O)O [Compound 14, N-Me-D-Phe-Ala-Phe-N-MeGly-OH] (H-[dNMeF]AF[Sar]-OH)
Radicle growth inhibition (%) ([3]; 67 µM as printed): 53%

Cyclo-[Ala-Leu-D-Phe-Gly] (head to tail) [Compound 16]
Radicle growth inhibition (%) [2]: inactive

Cyclo-[N-MeAla-Leu-D-Phe-Gly] (head to tail) [Compound 20]
Radicle growth inhibition (%) [2]: 74%
Radicle growth inhibition (%) [3, 6]: 32%

CN[C@@H](C)C(=O)N[C@@H](Cc1ccccc1)C(=O)N(C)[C@@H](Cc1ccccc1)C(=O)NCC(=O)O [Compound 13, N-MeAla-Phe-N-MePhe-Gly-OH] (H-[NMeA]F[NMeF]G-OH)
Radicle growth inhibition (%) [2]: greater than 85%
Radicle growth inhibition (%) ([3]; 5 µM, 12 days, relative to DMSO control): 38%

Cyclo-[Ala-Leu-N-Me-D-Phe-Gly] (head to tail) [Compound 19]
Radicle growth inhibition (%) [2]: 87% and greater than 85%
Radicle growth inhibition (%) ([3]; 9 µM, 12 days, relative to DMSO control): 53%

Source: PMC9656801, “Synthesis of Cyclotetrapeptides Analogues to Natural Products as Herbicides” (Molecules, 2022)
